This is an account of results in patent US10336761B2, “TGFβ receptor antagonist” (BRISTOL-MYERS SQUIBB COMPANY, priority 2015, dated 2019).

Molecules are shown by their SMILES.

For this assay, the target named is GST tagged wild type TGFβR1 (Homo sapiens (Human), UniProt P36897). Briefly: HTRF probe-displacement assay, GST tagged wild type TGFβR1. The class given is binding. The settings on record: GST tagged wild type proteins were used instead of HIS-tagged proteins. On the procedure: Compounds were dissolved at 10 mM in dimethylsulfoxide (DMSO) and evaluated at eleven concentrations. IC50 values were derived by non-linear regression analysis.
GST tagged wild type TGFβR1, sequence (P36897 34-503): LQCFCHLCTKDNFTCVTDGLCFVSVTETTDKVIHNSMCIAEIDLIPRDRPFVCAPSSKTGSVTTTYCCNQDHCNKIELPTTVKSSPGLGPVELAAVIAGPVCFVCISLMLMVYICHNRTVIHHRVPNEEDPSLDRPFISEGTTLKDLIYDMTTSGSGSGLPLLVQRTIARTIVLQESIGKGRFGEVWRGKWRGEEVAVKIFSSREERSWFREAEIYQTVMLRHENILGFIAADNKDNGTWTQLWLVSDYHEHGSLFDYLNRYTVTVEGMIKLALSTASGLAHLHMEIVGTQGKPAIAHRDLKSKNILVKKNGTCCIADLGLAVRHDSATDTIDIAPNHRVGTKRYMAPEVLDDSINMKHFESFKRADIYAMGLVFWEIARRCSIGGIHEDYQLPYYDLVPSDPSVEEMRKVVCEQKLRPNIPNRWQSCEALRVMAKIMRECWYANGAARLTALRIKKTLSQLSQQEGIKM
A general note: Time-resolved FRET reads energy transfer from a long-lived donor to a nearby acceptor.
By IC50 is commonly meant the concentration that gives 50% inhibition. Low readings indicate greater potency, high ones weaker potency. Molecule `Cc1ccnc(-c2nc(Nc3ccncc3F)c3cccn3n2)c1` [Example 62, 3-fluoro-N-[2-(4-methylpyridin-2-yl)pyrrolo[2,1-f][1,2,4]triazin-4-yl]pyridin-4-amine] had an IC50 of 1700 nM.
With `Cc1nc(-c2nc(Nc3ccncc3F)c3cccn3n2)ccc1F` [Example 74, 3-fluoro-N-[2-(5-fluoro-6-methylpyridin-2-yl)pyrrolo[2,1-f][1,2,4]triazin-4-yl]pyridin-4-amine], the IC50 was found to be 6.1 nM. Compared with the last molecule, the IC50 is about 280-fold lower.
Take `CN1CCN(Cc2ccn3nc(-c4cccc(C(F)F)n4)nc(Nc4ccncc4F)c23)CC1` [Example 122, N-{2-[6-(difluoromethyl)pyridin-2-yl]-5-[(4-methylpiperazin-1-yl)methyl]pyrrolo[2,1-f][1,2,4]triazin-4-yl}-3-fluoropyridin-4-amine]: the concentration for half-maximal inhibition (IC50) turned out to be 6 nM.
Take `O=C(NCCN1CCS(=O)(=O)CC1)c1cnccc1Nc1nc(-c2ccccn2)nn2cccc12` [Example 147, N-[2-(1,1-dioxo-1,4-thiomorpholin-4-yl)ethyl]-4-{[2-(pyridin-2-yl)pyrrolo[2,1-f][1,2,4]triazin-4-yl]amino}pyridine-3-carboxamide]: the half-maximal inhibitory concentration (IC50) worked out at 2600 nM.
